Test results reported in the CheMixHub viscosity set.

Test: xn = mol fraction of the nth substance listed

CNC=O + CC(=O)O
viscosity [mPa·s], 100 kPa
Settings	x1 = 0.1097	x1 = 0.183	x1 = 0.2628	x1 = 0.3502	x1 = 0.4802	x1 = 0.5897	x1 = 0.6693	x1 = 0.7549	x1 = 0.8961
303.15 K	1.044	1.086	1.132	1.183	1.259	1.324	1.372	1.426	1.517
308.15 K	0.9723	1.011	1.054	1.1	1.169	1.228	1.272	1.32	1.402
313.15 K	0.9175	0.9534	0.992	1.033	1.095	1.148	1.187	1.229	1.301
318.15 K	0.8728	0.9059	0.9409	0.978	1.033	1.08	1.114	1.151	1.213

C[N+]1(CC2CO2)CCCC1=O.[Cl-] (stereo unspecified) + CC(=O)O
viscosity [mPa·s], 101 kPa
Settings	293.15 K	298.15 K	303.15 K	308.15 K	313.15 K
x1 = 0.0373	1.592	1.448	1.322	1.213	1.115
x1 = 0.0644	1.83	1.652	1.5	1.371	1.256
x1 = 0.1087	2.234	2	1.802	1.632	1.489
x1 = 0.2041	2.728	2.425	2.172	1.959	1.776
x1 = 0.3022	2.803	2.492	2.235	2.018	1.831
x1 = 0.4053	2.587	2.314	2.087	1.892	1.723
x1 = 0.5054	2.324	2.095	1.9	1.731	1.586
x1 = 0.605	2.107	1.908	1.738	1.591	1.465
x1 = 0.7073	1.919	1.746	1.597	1.469	1.356
x1 = 0.8065	1.817	1.657	1.521	1.402	1.297
x1 = 0.9047	1.752	1.602	1.473	1.36	1.261

OC[C@@H](O)[C@@H](O)[C@H](O)[C@@H](O)CO + CC(=O)[O-].CC[n+]1ccn(C)c1
Settings	viscosity [mPa·s]
313.15 K, 100 kPa, x1 = 0.5	572.5

CNC=O + CC(=O)c1ccccc1
viscosity [mPa·s], 101 kPa
Settings	x1 = 0.0867	x1 = 0.176	x1 = 0.268	x1 = 0.3629	x1 = 0.4607	x1 = 0.5617	x1 = 0.6659	x1 = 0.7736	x1 = 0.8849
303.15 K	1.522	1.532	1.541	1.549	1.556	1.564	1.571	1.578	1.583
308.15 K	1.423	1.43	1.436	1.442	1.447	1.452	1.456	1.46	1.462
313.15 K	1.279	1.289	1.299	1.307	1.316	1.325	1.333	1.34	1.347
318.15 K	1.133	1.148	1.162	1.176	1.19	1.204	1.218	1.231	1.243

CC(C)OCCO + CC(C)O
298.15 K, 101.33 kPa
Settings	viscosity [mPa·s]
x1 = 0.0272	2.051
x1 = 0.0618	2.009
x1 = 0.0768	1.995
x1 = 0.092	1.986
x1 = 0.1373	1.959
x1 = 0.1766	1.941
x1 = 0.2006	1.929
x1 = 0.2467	1.914
x1 = 0.2976	1.9
x1 = 0.3502	1.899
x1 = 0.3949	1.902
x1 = 0.4259	1.903
x1 = 0.4507	1.908
x1 = 0.5015	1.918
x1 = 0.5529	1.93
x1 = 0.6181	1.948
x1 = 0.6764	1.971
x1 = 0.73	1.991
x1 = 0.7886	2.014
x1 = 0.8718	2.049
x1 = 0.9241	2.064
x1 = 0.9782	2.083

COC(=O)c1ccccc1 + CC(C)O
viscosity [mPa·s], 101 kPa
Settings	x1 = 0.0634	x1 = 0.1321	x1 = 0.2069	x1 = 0.2887	x1 = 0.3784	x1 = 0.4773	x1 = 0.5868	x1 = 0.7089	x1 = 0.8456
303.15 K	1.655	1.656	1.658	1.659	1.661	1.663	1.664	1.666	1.668
308.15 K	1.495	1.495	1.496	1.496	1.497	1.498	1.498	1.499	1.5
313.15 K	1.323	1.326	1.33	1.335	1.339	1.344	1.35	1.356	1.363
318.15 K	1.189	1.196	1.204	1.212	1.221	1.231	1.242	1.254	1.267
323.15 K	1.074	1.085	1.097	1.11	1.123	1.14	1.157	1.177	1.198

CCCCCCCCN(CCCCCCCC)CCCCCCCC + CC(CC(C)(C)C)CC(C)(C)C
298.15 K, 101.33 kPa
Settings	viscosity [mPa·s]
x1 = 0.052	1.424
x1 = 0.11	1.675
x1 = 0.173	1.982
x1 = 0.527	4.26

CNC=O + CC(O)CO
viscosity [mPa·s], 101 kPa
Settings	x1 = 0.0968	x1 = 0.1216	x1 = 0.2366	x1 = 0.347	x1 = 0.4526	x1 = 0.5534	x1 = 0.6498	x1 = 0.7432	x1 = 0.832	x1 = 0.917
293.15 K	39.02	36.25	22.68	14.7	9.934	6.941	5.057	3.792	2.933	2.349
303.15 K	22.78	21.44	14.24	9.752	6.915	5.053	3.822	2.965	2.363	1.935
313.15 K	14.24	13.56	9.479	6.811	5.034	3.819	2.986	2.381	1.949	1.631
323.15 K	9.382	9.048	6.609	4.951	3.793	2.97	2.388	1.957	1.635	1.397

CNC=O + CCC(=O)O
viscosity [mPa·s], 100 kPa
Settings	x1 = 0.1115	x1 = 0.1858	x1 = 0.2665	x1 = 0.3545	x1 = 0.4849	x1 = 0.5942	x1 = 0.6734	x1 = 0.7583	x1 = 0.8978
303.15 K	1.025	1.069	1.116	1.169	1.248	1.315	1.365	1.42	1.514
308.15 K	0.9555	0.9958	1.039	1.087	1.159	1.22	1.265	1.315	1.399
313.15 K	0.8989	0.9358	0.9757	1.019	1.083	1.138	1.179	1.223	1.298
318.15 K	0.8503	0.8846	0.9214	0.9605	1.019	1.068	1.104	1.143	1.209

C[N+]1(CC2CO2)CCCC1=O.[Cl-] (stereo unspecified) + CCC(=O)O
viscosity [mPa·s], 101 kPa
Settings	293.15 K	298.15 K	303.15 K	308.15 K	313.15 K
x1 = 0.0325	1.305	1.209	1.12	1.041	0.971
x1 = 0.0638	1.577	1.45	1.335	1.233	1.144
x1 = 0.1089	1.836	1.673	1.533	1.41	1.301
x1 = 0.205	2.333	2.104	1.909	1.738	1.592
x1 = 0.3036	2.544	2.285	2.064	1.876	1.712
x1 = 0.4076	2.537	2.278	2.059	1.87	1.707
x1 = 0.5049	2.288	2.069	1.882	1.718	1.578
x1 = 0.6079	2.088	1.895	1.729	1.586	1.462
x1 = 0.7037	1.935	1.763	1.613	1.485	1.372
x1 = 0.8065	1.808	1.65	1.516	1.399	1.296
x1 = 0.9028	1.643	1.507	1.39	1.286	1.194

CCCCOCCO + CCC(C)=O
298.15 K, 101 kPa
Settings	viscosity [mPa·s]
x2 = 0.154	2.106
x2 = 0.2906	1.609
x2 = 0.4126	1.234
x2 = 0.5221	0.939
x2 = 0.6211	0.727
x2 = 0.7108	0.607
x2 = 0.7927	0.519
x2 = 0.8676	0.466
x2 = 0.9365	0.416

CCCCCCCCN(CCCCCCCC)CCCCCCCC + CCCCCC
Settings	viscosity [mPa·s]
298 K, 101.3 kPa, x1 = 0.00584	0.331

CCCCOCCO + CCCCCC
viscosity [mPa·s], 101 kPa
Settings	303.15 K	313.15 K
x1 = 0.0327	0.292	0.258
x1 = 0.1014	0.354	0.31
x1 = 0.1974	0.456	0.396
x1 = 0.2974	0.587	0.506
x1 = 0.395	0.741	0.634
x1 = 0.4968	0.93	0.787
x1 = 0.5957	1.148	0.956
x1 = 0.7323	1.507	1.23
x1 = 0.8316	1.793	1.458
x1 = 0.8992	2.025	1.634
x1 = 0.9658	2.271	1.79

CCOC(=O)CCl + CCCCCC
viscosity [mPa·s], 101.33 kPa
Settings	x1 = 0.0977	x1 = 0.2029	x1 = 0.3028	x1 = 0.4001	x1 = 0.4982	x1 = 0.6039	x1 = 0.7027	x1 = 0.8032	x1 = 0.9022
298.15 K	0.342	0.375	0.416	0.465	0.524	0.602	0.683	0.787	0.923
303.15 K	0.326	0.357	0.396	0.441	0.495	0.566	0.641	0.739	0.861
308.15 K	0.309	0.339	0.377	0.417	0.466	0.53	0.6	0.69	0.8

COC(=O)c1ccccc1 + CCCCCC
101 kPa
Settings	viscosity [mPa·s]
298.15 K, x2 = 0.0743	1.549
298.15 K, x2 = 0.1072	1.437
298.15 K, x2 = 0.1557	1.292
298.15 K, x2 = 0.2038	1.165
298.15 K, x2 = 0.2487	1.059
298.15 K, x2 = 0.306	0.942
298.15 K, x2 = 0.4327	0.739
298.15 K, x2 = 0.5799	0.573
298.15 K, x2 = 0.6269	0.531
298.15 K, x2 = 0.7731	0.43
298.15 K, x2 = 0.8687	0.379
298.15 K, x2 = 0.9288	0.356
308.15 K, x2 = 0.0711	1.287
308.15 K, x2 = 0.1099	1.188
308.15 K, x2 = 0.156	1.08
308.15 K, x2 = 0.1971	0.989
308.15 K, x2 = 0.2501	0.894
308.15 K, x2 = 0.2967	0.816
308.15 K, x2 = 0.3441	0.748
308.15 K, x2 = 0.3888	0.69
308.15 K, x2 = 0.4383	0.633
308.15 K, x2 = 0.4943	0.577
308.15 K, x2 = 0.5292	0.546
308.15 K, x2 = 0.5797	0.504
308.15 K, x2 = 0.6228	0.475
308.15 K, x2 = 0.6692	0.446
308.15 K, x2 = 0.7253	0.412
308.15 K, x2 = 0.767	0.392
308.15 K, x2 = 0.8162	0.37
308.15 K, x2 = 0.8731	0.347
308.15 K, x2 = 0.9205	0.329
318.15 K, x2 = 0.08	1.087
318.15 K, x2 = 0.0873	1.072
318.15 K, x2 = 0.1249	1
318.15 K, x2 = 0.1776	0.906
318.15 K, x2 = 0.2189	0.839
318.15 K, x2 = 0.2731	0.757
318.15 K, x2 = 0.3197	0.696
318.15 K, x2 = 0.3711	0.634
318.15 K, x2 = 0.4155	0.586
318.15 K, x2 = 0.4667	0.537
318.15 K, x2 = 0.5132	0.499
318.15 K, x2 = 0.5535	0.471
318.15 K, x2 = 0.6116	0.436
318.15 K, x2 = 0.6634	0.41
318.15 K, x2 = 0.7082	0.388
318.15 K, x2 = 0.7636	0.365
318.15 K, x2 = 0.8087	0.35
318.15 K, x2 = 0.8631	0.333
318.15 K, x2 = 0.9098	0.317

COC(=O)c1ccccc1 + CCCCCCC
viscosity [mPa·s], 101.3 kPa
Settings	x1 = 0.0999	x1 = 0.196	x1 = 0.3001	x1 = 0.3974	x1 = 0.5004	x1 = 0.5978	x1 = 0.6984	x1 = 0.8033	x1 = 0.9017
298.15 K	0.425	0.464	0.533	0.601	0.701	0.814	0.968	1.183	1.435
308.15 K	0.382	0.418	0.472	0.535	0.616	0.708	0.839	1.008	1.197
318.15 K	0.346	0.378	0.422	0.475	0.539	0.62	0.72	0.86	1.024
